Source: US20250325677A1, “STAT6 DEGRADERS” (Gilead Sciences, Inc., priority 2024, published 2025)

Legend:
eotaxin-3 release = assay: Human whole blood eotaxin-3 assay (IL-4 stimulated); type: cell-based; details: human whole blood, IL-4 0.4 nM, 48 hours; geometric mean; given for compounds with >80% Emax; read-out: Eotaxin-3 EC50
Summary of the method: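 Human whole blood was preincubated with compound for 120 min at 37 °C, then stimulated with recombinant human IL-4 (E. coli) at 0.4 nM final for 48 h. Inhibition of eotaxin-3 release gave EC50 values.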

STAT6 = STAT6 (Homo sapiens (Human), UniProt P42226); assay: STAT6 degrader assay (HiBiT, HeLa LgBiT clone 4.14); type: cell-based; details: HeLa LgBiT clone 4.14, 4-24 h; geometric mean; given for compounds with >80% Emax; read-out: STAT6 degradation DC50
Summary of the method: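 DC50 (nM) comes from luminescence of non-degraded STAT6 read 0.5 h after Nano-GLO addition, following 4-24 h compound exposure at 37° C. Cells were HeLa clone 4.14 expressing LgBiT with a CRISPR HiBiT tag on endogenous STAT6; 50 μM terfenadine set full degradation.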

STAT6, sequence (P42226 whole entry): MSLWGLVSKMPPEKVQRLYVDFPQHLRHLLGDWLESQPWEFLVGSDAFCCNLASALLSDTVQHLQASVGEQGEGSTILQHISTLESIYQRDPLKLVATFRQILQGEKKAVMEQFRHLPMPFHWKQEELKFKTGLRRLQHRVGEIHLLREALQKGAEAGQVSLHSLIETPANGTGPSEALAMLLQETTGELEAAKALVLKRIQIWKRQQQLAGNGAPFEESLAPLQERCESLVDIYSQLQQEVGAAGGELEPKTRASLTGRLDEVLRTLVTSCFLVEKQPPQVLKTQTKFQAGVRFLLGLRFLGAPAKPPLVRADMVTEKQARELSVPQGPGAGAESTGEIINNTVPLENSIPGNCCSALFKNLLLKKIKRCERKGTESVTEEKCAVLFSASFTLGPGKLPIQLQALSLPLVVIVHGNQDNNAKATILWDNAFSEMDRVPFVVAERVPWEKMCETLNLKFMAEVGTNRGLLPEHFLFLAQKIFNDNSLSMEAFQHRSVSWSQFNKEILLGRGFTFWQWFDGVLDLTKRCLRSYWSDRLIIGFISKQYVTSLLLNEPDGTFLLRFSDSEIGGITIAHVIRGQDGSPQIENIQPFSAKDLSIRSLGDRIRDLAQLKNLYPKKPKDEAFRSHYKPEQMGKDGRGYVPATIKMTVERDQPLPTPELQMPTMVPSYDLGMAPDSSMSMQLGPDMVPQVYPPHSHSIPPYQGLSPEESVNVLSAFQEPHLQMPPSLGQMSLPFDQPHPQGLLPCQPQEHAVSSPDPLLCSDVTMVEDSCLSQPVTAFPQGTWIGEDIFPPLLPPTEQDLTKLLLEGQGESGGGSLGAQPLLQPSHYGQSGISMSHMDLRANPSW

| SMILES | EC50 (eotaxin-3 release) [nM] | DC50 (STAT6) [nM] |
| --- | --- | --- |
| C[C@H]1CN(Cc2ccc3c(c2)n(C)c(=O)n3C2CCC(=O)NC2=O)CCN1CC1CCN(C(=O)c2ccc(C3CCN([C@@H](C)c4cc5c(-c6ccc(N)nc6C#N)ccnc5n4C)CC3)cc2)CC1 (stereo partly drawn) [Example 3e55, 6-amino-3-(2-((1S)-1-(4-(4-(4-(((2S)-4-((1-(2,6-dioxopiperidin-3-yl)-3-methyl-2-oxo-2,3-dihydro-1H-benzo[d]imidazol-5-yl)methyl)-2-methylpiperazin-1-yl)methyl)piperidine-1-carbonyl)phenyl)-piperidin-1-yl)ethyl)-1-methyl-1H-pyrrolo[2,3-b]pyridin-4-yl)picolinonitrile] | 1.5 | 0.5 |
| C[C@H]1CN(Cc2ccc3c(c2)n(C)c(=O)n3C2CCC(=O)NC2=O)CCN1CC1CCN(C(=O)c2ccc(C3CCN([C@@H](C)c4cc5c(-c6ccc(N)cn6)ccnc5n4C)CC3)cc2)CC1 (stereo partly drawn) [Example 3e56, 3-(5-(((S)-4-((1-(4-(1-((S)-1-(4-(5-aminopyridin-2-yl)-1-methyl-1H-pyrrolo[2,3-b]pyridin-2-yl)ethyl)piperidin-4-yl)benzoyl)piperidin-4-yl)methyl)-3-methylpiperazin-1-yl)methyl)-3-methyl-2-oxo-2,3-dihydro-1H-benzo[d]imidazol-1-yl)piperidine-2,6-dione] | 2.6 | 0.4 |
| C[C@H]1CN(Cc2cc3c(cc2F)n(C2CCC(=O)NC2=O)c(=O)n3C2CC2)CCN1CC1CCN(C(=O)c2ccc(C3CCN([C@@H](C)c4cc5c(-c6ccc(N)nc6)ccnc5n4C)CC3)cc2)CC1 (stereo partly drawn) [Example 3e58, 3-(5-(((S)-4-((1-(4-(1-((S)-1-(4-(6-aminopyridin-3-yl)-1-methyl-1H-pyrrolo[2,3-b]pyridin-2-yl)ethyl)piperidin-4-yl)benzoyl)piperidin-4-yl)methyl)-3-methylpiperazin-1-yl)methyl)-3-cyclopropyl-6-fluoro-2-oxo-2,3-dihydro-1H-benzo[d]imidazol-1-yl)piperidine-2,6-dione] | 1.9 | 0.8 |
| C[C@@H](c1cc2c(-c3ccc(N)nc3)ccnc2n1C)N1CCC(c2ccc(C(=O)N3CCC(CN4CCN(Cc5cc6c(cc5F)N(C5CCC(=O)NC5=O)C(=O)C65CC5)CC4)CC3)cc2)CC1 (stereo partly drawn) [Example 3h9, 3-(5′-((4-((1-(4-(1-((S)-1-(4-(6-aminopyridin-3-yl)-1-methyl-1H-pyrrolo[2,3-b]pyridin-2-yl)ethyl)piperidin-4-yl)benzoyl)piperidin-4-yl)methyl)piperazin-1-yl)methyl)-6′-fluoro-2′-oxospiro[cyclopropane-1,3′-indolin]-1′-yl)piperidine-2,6-dione] | 43.7 | 12.7 |
| CNc1ccc(-c2ccnc3c2cc([C@H](C)N2CC=C(c4c(C)cc(C(=O)N(C)c5ccc(C6CCN(Cc7ccc8c(c7)C7(CC7)C(=O)N8C7CCC(=O)NC7=O)CC6)cc5)cc4F)CC2)n3C)cn1 (stereo partly drawn) [Example 3h11, N-(4-(1-((1′-(2,6-dioxopiperidin-3-yl)-2′-oxospiro[cyclopropane-1,3′-indolin]-5′-yl)methyl)piperidin-4-yl)phenyl)-3-fluoro-N,5-dimethyl-4-(1-((S)-1-(1-methyl-4-(6-(methylamino)pyridin-3-yl)-1H-pyrrolo[2,3-b]pyridin-2-yl)ethyl)-1,2,3,6-tetrahydropyridin-4-yl)benzamide] | 2.8 | 0.3 |
| C[C@@H](c1cc2c(-c3ccc(N)nc3)ccnc2n1C)N1CCC(c2ccc(C(=O)N3CCC(CC4CCN(c5ccc6c(c5)C5(CC5)C(=O)N6C5CCC(=O)NC5=O)CC4)CC3)cc2)CC1 (stereo partly drawn) [Example 3h13, 3-(5′-(4-((1-(4-(1-((S)-1-(4-(6-aminopyridin-3-yl)-1-methyl-1H-pyrrolo[2,3-b]pyridin-2-yl)ethyl)piperidin-4-yl)benzoyl)piperidin-4-yl)methyl)piperidin-1-yl)-2′-oxospiro[cyclopropane-1,3′-indolin]-1′-yl)piperidine-2,6-dione] | 23.2 | 48.7 |
